Laboratory results taken from US12655132B2, “Crystal forms of a pyridazinone TRPC inhibitor” (GFB (ABC), LLC, priority 2019, dated 2026).

Experiment: Stability of crystalline form E at different relative humidities over 3-14 days
Assay type: physicochemical
Protocol: Crystalline form E was also tested for stability at different relative humidities over 3-14 days. The results are shown below in Table 3.1

Stability of Crystalline Form E at Different Relative Humidities (RH): crystal type found (30% RH, 3 days): Type E
Stability of Crystalline Form E at Different Relative Humidities (RH): crystal type found (30% RH, 7 days): Type E
Stability of Crystalline Form E at Different Relative Humidities (RH): crystal type found (30% RH, 14 days): Type E + Type F
Stability of Crystalline Form E at Different Relative Humidities (RH): crystal type found (50% RH, 3 days): Type E
Stability of Crystalline Form E at Different Relative Humidities (RH): crystal type found (50% RH, 7 days): Type E
Stability of Crystalline Form E at Different Relative Humidities (RH): crystal type found (50% RH, 14 days): Type E
Stability of Crystalline Form E at Different Relative Humidities (RH): crystal type found (60% RH, 3 days): Type E
Stability of Crystalline Form E at Different Relative Humidities (RH): crystal type found (60% RH, 7 days): Type E
Stability of Crystalline Form E at Different Relative Humidities (RH): crystal type found (60% RH, 14 days): Type E
Stability of Crystalline Form E at Different Relative Humidities (RH): crystal type found (92.5% RH, 3 days): Type E
Stability of Crystalline Form E at Different Relative Humidities (RH): crystal type found (92.5% RH, 7 days): Type E
Stability of Crystalline Form E at Different Relative Humidities (RH): crystal type found (92.5% RH, 14 days): Type E
Stability at low relative humidity (conclusion in words) (storage for 14 days at 30% relative humidity, appearance of Type F): unstable
Structure (SMILES): O=c1[nH]ncc(N2CCc3c(ncnc3Oc3ccc(F)cc3C(F)(F)F)C2)c1Cl [Crystalline Form E, 4-chloro-5-(4-(4-fluoro-2-(trifluoromethyl)phenoxy)-5,8-dihydropyrido[3,4-d]pyrimidin-7(6H)-yl)pyridazin-3(2H)-one]
